Test results taken from the NIST ThermoML archive (doi:10.1021/je300146k).
± gives the expanded uncertainty stated by the source.

Conditions: 298.15 K; 101.33 kPa; Liquid; Vibrating tube method

| Compound | mass density [kg/m3] |
| --- | --- |
| OCc1ccccc1 [benzenemethanol] | 1043.53 ± 0.29 |
| CCCCCCCCCC [decane] | 726.43 ± 0.26 |
| CCCCCCCCCCCC [dodecane] | 741.54 ± 0.58 |
| CCCCCCC [heptane] | 679.71 ± 0.21 |
| CCCCCCCC [octane] | 698.76 ± 0.26 |
| CCCCCCCCCCCCCC [tetradecane] | 759.27 ± 0.26 |
